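96-well plates; 48 h exposure; 5 concentrations. Endpoints by linear interpolation between flanking doses. Not reached: highest tested concentration assigned. Definition used: TGI = concentration required for complete inhibition of growth.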 *1 amine or outer side, *2 acyl side, *3 side chain or, on linkers, in order; H or OH if unused. Where a SMILES comes first, the peptide text is derived from it. Bridges are numbered along the chain shown (N, C = ends). [ ]: non-standard residue; d: D form. X59 = COc1c(N[*:1])cccc1C(=O)O[C@H](C(=O)[C@H](C)C(=O)[*:2])C(C)C; X58 = CC(C)C[C@H](C(=O)[*:2])C(C)C(=O)C1CCCN1[*:1]; NMeY = CN[C@@H](Cc1ccc(O)cc1)C(=O)O; Lac = C[C@H](O)C(=O)O Some results are limits rather than exact numbers.

Some test systems named below: PC-3 prostate; SN12C renal; MALME-3M melanoma; U251 CNS; KM12 colon; HCT-116 colon; SK-MEL-28 melanoma; SF-539 CNS; NCI-H226 lung; HCT-15 colon; MDA-MB-435; HS 578T breast; HCC-2998 colon.
What all share (assay): growth of human tumour cells (NCI), 48 h

On to `CC1(Cc2cc3c(cc2C2(c4ccc([N+](=O)[O-])cc4)OCCO2)OCO3)OCCO1`, for which the TGI with PC-3 prostate, in the assay with SN12C renal, in the assay with MALME-3M melanoma, with U251 CNS, in the assay on KM12 colon and in the assay on HCT-116 colon was more than 100 µM throughout. Also, the TGI in the assay with SK-MEL-28 melanoma, in the assay on SF-539 CNS, with NCI-H226 lung, with HCT-15 colon, in the assay on MDA-MB-435 and in the assay on HS 578T breast was more than 100 µM each time. In the assay with HCC-2998 colon, this compound displayed a TGI of more than 100 µM.
For `O=[N+]([O-])c1cc2ccc1OCc1cccc(n1)COc1ccc(cc1[N+](=O)[O-])C=NCCCCCCCCN=C2`, the TGI in the assay with PC-3 prostate, in the assay with SN12C renal, in the assay on MALME-3M melanoma, in the assay with U251 CNS, in the assay with KM12 colon and in the assay with HCT-116 colon was more than 100 µM throughout. Further, the TGI with SK-MEL-28 melanoma, with SF-539 CNS, with NCI-H226 lung, with HCT-15 colon, in the assay with MDA-MB-435 and with HS 578T breast was more than 100 µM in each case. Further, the TGI in the assay on HCC-2998 colon was more than 100 µM.
Take `COc1ccc(C[C@H]2C(=O)O[C@H](C)[C@H](NC(=O)[C@@H](CC(C)C)C(C)C(=O)C3CCCN3C(=O)[C@H](C)O)C(=O)Nc3cccc(c3OC)C(=O)O[C@@H](C(C)C)C(=O)[C@H](C)C(=O)N[C@@H](CC(C)C)C(=O)N3CCC[C@H]3C(=O)N2C)cc1` (stereo partly specified) (H-[Lac][X58]T[X59]LP[NMeY](Me); ester 3-C): the TGI in the assay on PC-3 prostate, with SN12C renal, in the assay with MALME-3M melanoma, in the assay with U251 CNS, in the assay with KM12 colon and with HCT-116 colon was more than 12.5 µM each time. In addition, the TGI in the assay with SK-MEL-28 melanoma, in the assay on SF-539 CNS, in the assay with NCI-H226 lung, in the assay on HCT-15 colon, in the assay with MDA-MB-435 and with HS 578T breast was more than 12.5 µM in each case. In the assay with HCC-2998 colon, this compound gave a TGI of more than 12.5 µM.
Consider `CC(C)(C)OC(=O)NC(Cc1ccc(OCc2ccccc2)cn1)C(=O)O` (stereo unspecified), for which the TGI in the assay on PC-3 prostate, with SN12C renal, with MALME-3M melanoma, with U251 CNS, with KM12 colon and with HCT-116 colon was more than 100 µM in each case. Besides, the TGI in the assay on SK-MEL-28 melanoma, in the assay with SF-539 CNS, in the assay on NCI-H226 lung, in the assay with HCT-15 colon, with MDA-MB-435 and in the assay on HS 578T breast was more than 100 µM each time. Moreover, the TGI in the assay with HCC-2998 colon is more than 100 µM.
Consider `C=C1C(=O)OC2/C=C(\C)CC/C=C(\C)CC(OC(=O)/C(=C/CO)CO)[C@@H]12` (stereo partly specified), for which the TGI in the assay with PC-3 prostate is 31.8 µM; in the assay on SN12C renal it was 27.2 µM; in the assay on MALME-3M melanoma, 5.81 µM; with U251 CNS it was 4.71 µM; in the assay on KM12 colon it was 35.1 µM; in the assay with HCT-116 colon it was 10.7 µM. In addition, the TGI is 31.2 µM in the assay on SK-MEL-28 melanoma; 26.3 µM with SF-539 CNS; more than 80.4 µM in the assay with NCI-H226 lung; 29.7 µM in the assay with HCT-15 colon; 19 µM in the assay with MDA-MB-435; 63.4 µM in the assay on HS 578T breast. Further, the TGI with HCC-2998 colon worked out at 33.5 µM.
Turning to `CNc1cccc2c1C(C)C[C@]1(C)C(=O)Nc3ccccc3[C@H]21` (stereo partly specified), the TGI in the assay on PC-3 prostate is 74.5 µM; in the assay with SN12C renal it was 48.5 µM; with MALME-3M melanoma it was 47.7 µM; with KM12 colon it was 87.1 µM; in the assay with HCT-116 colon, 34.8 µM; in the assay with SK-MEL-28 melanoma, 91.8 µM. For the same compound, the TGI was more than 100 µM with SF-539 CNS; 61.4 µM in the assay with NCI-H226 lung; more than 100 µM in the assay on HCT-15 colon; 53.4 µM in the assay on MDA-MB-435; 53.6 µM in the assay on HS 578T breast; more than 100 µM in the assay on HCC-2998 colon.
Take `COC(=O)/C(C#N)=C(/NCc1ccccc1)Nc1ccccc1`: the TGI with PC-3 prostate, in the assay with SN12C renal, in the assay on MALME-3M melanoma, with U251 CNS, in the assay with HCT-116 colon and in the assay with SK-MEL-28 melanoma was more than 100 µM in each case. For the same compound, the TGI in the assay on SF-539 CNS, in the assay on NCI-H226 lung, in the assay with HCT-15 colon, in the assay with MDA-MB-435, in the assay on HS 578T breast and in the assay with HCC-2998 colon was more than 100 µM throughout.
For `N#Cc1nc(-c2ccc(-c3nc(C#N)c(N)o3)cc2)oc1N`, the TGI in the assay on PC-3 prostate, in the assay with SN12C renal, in the assay on MALME-3M melanoma, with KM12 colon, with HCT-116 colon and in the assay with SK-MEL-28 melanoma was more than 10 µM in each case. Besides, the TGI in the assay with SF-539 CNS, in the assay with NCI-H226 lung, in the assay with HCT-15 colon, with MDA-MB-435, with HS 578T breast and in the assay on HCC-2998 colon was more than 10 µM in each case.

Source of the values: PubChem BioAssay (NCI).
